Measured values as given in patent US20150031056A1, “DEVELOPMENT OF SPECIFIC IMMUNOASSAY CRITICAL REAGENTS FOR PHARMACOKINETIC ASSESSMENTS OF PEPTIDE POLYMERS IN PRECLINICAL AND CLINICAL MATRICES” (priority 2011, published 2015).
“And” between values parts separate entries of the source, which are not always exact repeats. Equal values may be shown once.

Experiment: Pilot PK study in Sprague Dawley rats (serum Copaxone by ELISA)
Type: in vivo
Details: Copaxone 20 mg/kg B.wt
Description: A series of serum samples, each containing Copaxone spiked at known concentration and forming a set of calibrator standards to generate a calibration curve to quantify Copaxone in the serum samples of the given species was made in the serum with Copaxone at levels […], 30000 ng/ml, 4000 ng/ml, 2000 ng/ml, 1000 ng/ml, 500 ng/ml, 250 ng/ml, 125 ng/ml, 62.5 ng/ml, 31.3 ng/ml, 7.8 ng/ml and 3.9 ng/ml in neat serum.
ELISA plate is precoated with Polyclonal Rabbit Anti Copaxone antibodies and the appropriately diluted serum samples constituting the calibrator standards and samples for analysis were incubated for binding to the coated Anti Copaxone antibodies and unbound and poorly bound serum components were separated during washing with PBST (Phosphate buffered saline with 0.1% tween 20).The bound Copaxone was detected using biotin labeled Polyclonal Rabbit Anti Copaxone antibodies and streptavidin Alkaline phosphatase conjugate. Substrate was added to the wells and the blue colored signal obtained at 640 nm for the test samples is compared with the calibration curve prepared from concentration-response relationship of the calibrators to determine the unknown concentration of Copaxone in the serum samples.
Three male Sprague Dawley rats were dosed with Copaxone at 20 mg per kg body weight with a dosing volume of […] at the dose concentration of 20mg/ml per day. The dosage was selected based on minimum feasible dose (based on dose volume of 1 ml per kg) for the given strength of 20 mg/ml. Each animal was weighed and dosed with Copaxone @ 20 mg/kg B.wt. Blood samples were collected in 10 μl of Protease inhibitor from each animal at the time point 5 min, 10 min, 15 min, 20 min, 30 min, 45 min, 1, 2, 3, 4, 6, 10 and 24 hours. The blood samples were stored on wet ice for serum separation. The serum was separated and stored at −80° C. till the shipment. The samples till 24 hours were shipped in Dry Ice […].

[1] = Mean of three male Sprague Dawley rats
[2] = individual male Sprague Dawley rat (Rat 1, 2, 3)

With Glatiramer acetate [Copaxone] as the substance, how does the AUC0-inf [1] read?
The AUC0-inf was 25507 ng·min/mL.

And the AUC0-t [1]?
The AUC0-t was 25211.81 ng·min/mL.

And the “AUC % Extrap_obs (Should be < 5%)” value [1]?
The value was 1.24%.

And the Cmax [1]?
Its Cmax is 1824.12 ng/mL.

And the T1/2 [1]?
The T1/2 was 27.45 min.

What about the Tmax [1] of the same substance?
Its Tmax is 11.67 min.

And the AUC0-inf [2]?
Its AUC0-inf is 25654.06 ng·min/mL and 15705.6 ng·min/mL and 35161.34 ng·min/mL.

And the AUC0-t [2]?
The AUC0-t was 25491.53 ng·min/mL and 15411.63 ng·min/mL and 34732.28 ng·min/mL.

What about the “AUC % Extrap_obs (Should be < 5%)” value [2] of the same substance?
Its value is 0.63% and 1.87% and 1.22%.

What about the Cmax [2] of the same substance?
The Cmax was 968.69 ng/mL and 510.79 ng/mL and 3992.88 ng/mL.

What about the Tmax [2] of the same substance?
The Tmax was 15 min and 10 min.

What about the T1/2 (individual male Sprague Dawley rat (Rat 1, 2, 3), samples 5 min to 24 hours) of the same substance?
Its T1/2 is 31.18 min and 23.39 min and 27.79 min.
